In patent US11987559B1, “1-(4-bromobenzylideneamino)-5-phenylimidazolidine-2,4-dione as an antimicrobial compound” (KING FAISAL UNIVERSITY, priority 2023, dated 2024):

Legend:
Assay type in all cases: cell-based
[1] = system: Aspergillus flavus; test: agar plate disc-diffusion, antifungal inhibition zone; settings: Sabouraud's dextrose agar, 72 hours
Experimental: (§1) The agar plate disc-diffusion method was applied. […] The discs were then placed onto the surface of agar plates (nutrient agar for bacteria and Sabouraud's dextrose agar for fungi) seeded with the test organism. Each plate contained 15 mL of the agar medium, previously seeded with 0.2 mL of the broth culture of each organism pregrown for 18 hours. The plates were incubated at 37° C. for 48 hours, and 72 hours for fungi. The inhibition zones were measured in millimeters (mm). Discs impregnated with DMSO were used as a control, and its inhibition zone was subtracted from the tested compound's actual inhibition zone.

[2] = system: Chrysosporium keratinophilum; test: as above; settings: Sabouraud's dextrose agar, 72 hours
Experimental: as §1

[3] = system: different microbes; test: antimicrobial testing, overall statement; settings: result in words; bacteria and fungi of tables 1, 2
Experimental: The agar plate disc-diffusion method was applied. Sterilized filter papers (6 mm in diameter) were wetted with 10 μL of a solution of 1-(4-bromobenzylideneamino)-5-phenylimidazolidine-2,4-dione (4) to be tested, containing 10 mg/mL in DMSO, and the discs were allowed to air dry. The discs were then placed onto the surface of agar plates (nutrient agar for bacteria and Sabouraud's dextrose agar for fungi) seeded with the test organism. Each plate contained 15 mL of the agar medium, previously seeded with 0.2 mL of the broth culture of each organism pregrown for 18 hours. The plates were incubated at 37° C. for 48 hours, and 72 hours for fungi. The inhibition zones were measured in millimeters (mm). Discs impregnated with DMSO were used as a control, and its inhibition zone was subtracted from the tested compound's actual inhibition zone.

[4] = system: Escherichia coli; test: agar plate disc-diffusion, antibacterial inhibition zone; settings: nutrient agar, 37° C., 48 hours
Experimental: as §1

[5] = system: Bacillus cereus; test: as above; settings: nutrient agar, 37° C., 48 hours
Experimental: as §1

[6] = system: Staphylococcus aureus; test: as above; settings: nutrient agar, 37° C., 48 hours
Experimental: as §1

[7] = system: Pseudomonas aeruginosa; test: as above; settings: nutrient agar, 37° C., 48 hours
Experimental: as §1

[8] = A = concentration of comp. = 10,000 μL
[9] = B = concentration of comp. = 30.000 μL
[10] = C = concentration of comp. = 50,000 μL

Row | Compound | inhibition zone [1, 8] | inhibition zone [1, 9] | inhibition zone [1, 10] | inhibition zone [2, 8] | inhibition zone [2, 9] | inhibition zone [2, 10] | antimicrobials activities against different microbes [3] | inhibition zone [4, 8] | inhibition zone [4, 9] | inhibition zone [4, 10] | inhibition zone [5, 8] | inhibition zone [5, 9] | inhibition zone [5, 10] | inhibition zone [6, 8] | inhibition zone [6, 9] | inhibition zone [6, 10] | inhibition zone [7, 8] | inhibition zone [7, 9] | inhibition zone [7, 10]
1 | O=C1NC(=O)N(/N=C/c2ccc(Br)cc2)C1c1ccccc1 (stereo not shown) [Compound 4, 1-(4-bromobenzylideneamino)-5-phenylimidazolidine-2,4-dione] | 19 mm | 24 mm | 35 mm | 26 mm | 29 mm | 45 mm | excellent | 24 mm | 30 mm | 48 mm | 27 mm | 29 mm | 28 mm | 15 mm | 23 mm | 26 mm | 23 mm | 27 mm | 34 mm
2 | O=C(O)c1cn(C2CC2)c2cc(N3CCNCC3)c(F)cc2c1=O [Cip., reference compound] | 29 mm | 30 mm | 42 mm | 29 mm | 30 mm | 53 mm |  | 30 mm | 39 mm | 60 mm | 29 mm | 30 mm | 42 mm | 43 mm | 44 mm | 53 mm | 29 mm | 30 mm | 53 mm
